Reference: patent US9598423B2 (BRISTOL-MYERS SQUIBB COMPANY, priority 2013, dated 2017)
Like-named read-outs stand apart in the source and are kept apart here.

What was measured:
CK1ε = CK1ε (Homo sapiens (Human), UniProt P49674); experiment: CK1ε kinase assay (Caliper LABCHIP electrophoretic separation of fluoresceinated peptide substrate and product); assay type: biochemical; conditions: 200 pM CK1ε, 50 μM ATP, 1.5 μM peptide substrate, 22 hours at room temperature; read-out: CK1ε (IC50)
Description: (§1) CK1ε and CK1δ Kinase Assays
(§2) The kinase assay was performed in V-bottom 384-well plates. […] The reaction was incubated at room temperature for 22 hours and terminated by adding 45 μl of 35 mM EDTA to each sample. The reaction mixture was analyzed on the Caliper LABCHIP®3000 (Caliper, Hopkinton, Mass.) by electrophoretic separation of the unphosphorylated substrate and phosphorylated product. […] Compounds were dissolved at 10 mM in dimethylsulfoxide (DMSO) and evaluated at eleven concentrations. IC50 values were derived by non-linear regression analysis.

CK1δ = CK1δ (Homo sapiens (Human), UniProt P48730); experiment: CK1δ kinase assay (Caliper LABCHIP electrophoretic separation of fluoresceinated peptide substrate and product); assay type: biochemical
Description: as §1, §2

[1] = 200 pM CK1δ, 50 μM ATP, 1.5 μM peptide substrate, 22 hours at room temperature, read-out: CK1δ (IC50)

CK1ε, sequence (P49674 whole entry): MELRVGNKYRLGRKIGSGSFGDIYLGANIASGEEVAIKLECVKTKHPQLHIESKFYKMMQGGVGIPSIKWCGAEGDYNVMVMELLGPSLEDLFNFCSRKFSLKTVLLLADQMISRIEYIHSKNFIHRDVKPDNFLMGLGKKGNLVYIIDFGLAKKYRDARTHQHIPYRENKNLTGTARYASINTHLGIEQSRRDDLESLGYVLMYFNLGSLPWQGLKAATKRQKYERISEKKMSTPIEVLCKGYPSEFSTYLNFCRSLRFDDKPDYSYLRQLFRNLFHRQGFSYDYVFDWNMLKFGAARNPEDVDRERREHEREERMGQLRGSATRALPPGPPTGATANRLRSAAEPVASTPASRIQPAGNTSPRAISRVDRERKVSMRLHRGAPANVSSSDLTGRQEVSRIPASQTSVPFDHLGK
CK1δ, sequence (P48730 whole entry): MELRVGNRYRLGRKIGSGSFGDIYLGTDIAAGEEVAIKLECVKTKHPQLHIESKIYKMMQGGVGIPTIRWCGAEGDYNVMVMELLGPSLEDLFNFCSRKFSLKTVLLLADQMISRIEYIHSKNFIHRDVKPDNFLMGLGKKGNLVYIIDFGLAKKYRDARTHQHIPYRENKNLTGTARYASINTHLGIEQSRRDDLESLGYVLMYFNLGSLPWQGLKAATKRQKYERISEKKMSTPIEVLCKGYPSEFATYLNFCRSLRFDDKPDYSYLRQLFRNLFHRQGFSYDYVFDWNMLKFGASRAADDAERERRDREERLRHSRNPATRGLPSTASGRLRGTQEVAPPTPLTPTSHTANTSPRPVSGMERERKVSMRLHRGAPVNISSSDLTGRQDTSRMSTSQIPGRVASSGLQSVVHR

Compound | IC50 (CK1ε) [nM] | IC50 (CK1δ; [1]) [nM] | IC50 (CK1δ; CK1δ (IC50, nM)) [nM]
N#Cc1ccc(NC(=O)N2CCn3nc(-c4cc(F)cc(Cl)c4)c(C(N)=O)c3C2)cc1Cl [Compound 222, N^5-(3-Chloro-4-cyanophenyl)-2-(3-chloro-5-fluorophenyl)-6,7-dihydropyrazolo[1,5-a] pyrazine-3,5(4H)-dicarboxamide] | 0.01 to 10 | 0.01 to 10 | –
Cc1cc(Cl)cc(-c2nn3c(c2C(N)=O)CN(C(=O)Nc2ccc(C#N)cc2)CC3)c1 [Compound A62, 2-(3-Chloro-5-methylphenyl)-N^5-(4-cyanophenyl)-6,7-dihydropyrazolo[1,5-a]pyrazine-3,5(4H)-dicarboxamide] | 0.01 to 10 | 0.01 to 10 | –
N#Cc1ccc(NC(=O)N2Cc3c(C(N)=O)c(-c4ccc(F)c(Cl)c4)nn3CC23CC3)cc1C(F)(F)F [Compound 345, 2′-(3-Chloro-4-fluorophenyl)-N^5′-(4-cyano-3-(trifluoromethyl)phenyl)-4′H-spiro[cyclopropane-1,6′-pyrazolo[1,5-a]pyrazine]-3′,5′(7′H)-dicarboxamide] | 10 to 100 | – | 10 to 100
CS(=O)(=O)c1cccc(-c2nn3c(c2C(N)=O)CN(C(=O)Nc2ccc(C#N)cc2)CC3)c1 [Compound 286, N^5-(4-Cyanophenyl)-2-(3-(methylsulfonyl)phenyl)-6,7-dihydropyrazolo[1,5-a] pyrazine-3,5(4H)-dicarboxamide] | 100 to 2000 | 100 to 2000 | –
Cc1cc(Cl)cc(-c2nn3c(c2C(N)=O)CN(C(=O)Nc2ccc(C#N)c(Cl)c2)CC3)c1 [Compound A63, N^5-(3-Chloro-4-cyanophenyl)-2-(3-chloro-5-methylphenyl)-6,7-dihydropyrazolo[1,5-a]pyrazine-3,5(4H)-dicarboxamide] | 0.01 to 10 | 0.01 to 10 | –
N#Cc1ccc(NC(=O)N2CCn3nc(-c4cc(F)c5cn[nH]c5c4)c(C(N)=O)c3C2)cc1Cl [Compound 323, N^5-(3-Chloro-4-cyanophenyl)-2-(4-fluoro-1H-indazol-6-yl)-6,7-dihydropyrazolo[1,5-a]pyrazine-3,5(4H)-dicarboxamide] | 0.01 to 10 | 10 to 100 | –
CC(=O)Nc1cccc(-c2nn3c(c2C(N)=O)CN(C(=O)Nc2ccc(C#N)cc2)CC3)c1 [Compound 288, 2-(3-Acetamidophenyl)-N^5-(4-cyanophenyl)-6,7-dihydropyrazolo[1,5-a] pyrazine-3,5(4H)-dicarboxamide] | 100 to 2000 | 100 to 2000 | –
CC1Cn2nc(-c3ccc(Cl)c(Cl)c3)c(C(N)=O)c2CN1C(=O)Nc1ccc(C#N)cc1 (single isomer, unassigned) [Compound 333, N^5-(4-Cyanophenyl)-2-(3,4-dichlorophenyl)-6-methyl-6,7-dihydropyrazolo[1,5-a]pyrazine-3,5(4H)-dicarboxamide] | 0.01 to 10 | 0.01 to 10 | –
N#Cc1ccc(NC(=O)N2Cc3c(C(N)=O)c(-c4ccc(F)c(Cl)c4)nn3C3(COC3)C2)cc1 [Compound A88, 2′-(3-Chloro-4-fluorophenyl)-N^5′-(4-cyanophenyl)-4′H-spiro[oxetane-3,7′-pyrazolo[1,5-a]pyrazine]-3′,5′(6′H)-dicarboxamide] | 0.01 to 10 | 0.01 to 10 | –
Cc1cc(F)cc(-c2nn3c(c2C(N)=O)CN(C(=O)Nc2ccc(C#N)c(F)c2)CC3)c1 [Compound 224, N^5-(4-Cyano-3-fluorophenyl)-2-(3-fluoro-5-methylphenyl)-6,7-dihydropyrazolo[1,5-a] pyrazine-3,5(4H)-dicarboxamide] | 0.01 to 10 | 0.01 to 10 | –
NC(=O)c1c(-c2cccc(F)c2)nn2c1CN(C(=O)NCc1ccc(Cl)cc1Cl)CC2 [Compound 45, N^5-(2,4-Dichlorobenzyl)-2-(3-fluorophenyl)-6,7-dihydropyrazolo[1,5-a]pyrazine-3,5(4H)-dicarboxamide] | 0.01 to 10 | 0.01 to 10 | –
N#Cc1ccc(NC(=O)N2Cc3c(C(N)=O)c(-c4ccc(F)c(Cl)c4)nn3[C@H]3COC[C@H]32)cc1 [Compound 347, (5aS,8aR)-2-(3-Chloro-4-fluorophenyl)-N^5-(4-cyanophenyl)-5a,6,8,8a-tetrahydrofuro[3,4-e]pyrazolo[1,5-a]pyrazine-3,5(4H)-dicarboxamide] | 0.01 to 10 | 0.01 to 10 | –
COc1cccc(NC(=O)N2CCn3nc(-c4cccc(F)c4)c(C(N)=O)c3C2)c1 [Compound 73, 2-(3-Fluorophenyl)-N^5-(3-methoxyphenyl)-6,7-dihydropyrazolo[1,5-a]pyrazine-3,5(4H)-dicarboxamide] | 0.01 to 10 | 0.01 to 10 | –
NC(=O)c1c(-c2cc(Cl)cc(Cl)c2)nn2c1CN(C(=O)Nc1ccc(Cl)c(Cl)c1)CC2 [Compound 302, N^5-(3,4-Dichlorophenyl)-2-(3,5-dichlorophenyl)-6,7-dihydropyrazolo[1,5-a] pyrazine-3,5(4H)-dicarboxamide] | 0.01 to 10 | 0.01 to 10 | –

Second part, led by results:

IC50 (CK1ε) [nM] | IC50 (CK1δ; [1]) [nM] | Compound | IC50 (CK1δ; CK1δ (IC50, nM)) [nM]
0.01 to 10 | 0.01 to 10 | Cc1cc(-c2nn3c(c2C(N)=O)CN(C(=O)Nc2ccc(C#N)c(F)c2)CC3)ccc1F [Compound 243, N^5-(4-Cyano-3-fluorophenyl)-2-(4-fluoro-3-methylphenyl)-6,7-dihydropyrazolo[1,5-a] pyrazine-3,5(4H)-dicarboxamide] | –
0.01 to 10 | 0.01 to 10 | Cc1ncc(-c2ccc(NC(=O)N3CCn4nc(-c5cccc(Cl)c5)c(C(N)=O)c4C3)cc2)o1 [Compound A47, 2-(3-Chlorophenyl)-N^5-(4-(2-methyloxazol-5-yl)phenyl)-6,7-dihydropyrazolo[1,5-a]pyrazine-3,5(4H)-dicarboxamide] | –
0.01 to 10 | 0.01 to 10 | NC(=O)c1c(-c2ccc(F)c(Cl)c2)nn2c1CN(C(=O)Nc1cccc(OC(F)(F)F)c1)CC2 [Compound 184, 2-(3-Chloro-4-fluorophenyl)-N^5-(3-(trifluoromethoxy)phenyl)-6,7-dihydropyrazolo[1,5-a] pyrazine-3,5(4H)-dicarboxamide] | –
0.01 to 10 | 10 to 100 | N#Cc1ccc(NC(=O)N2CCn3nc(-c4cccc(Cl)c4Cl)c(C(N)=O)c3C2)cc1 [Compound 287, N^5-(4-Cyanophenyl)-2-(2,3-dichlorophenyl)-6,7-dihydropyrazolo[1,5-a] pyrazine-3,5(4H)-dicarboxamide] | –
0.01 to 10 | 0.01 to 10 | NC(=O)c1c(-c2cccc(F)c2)nn2c1CN(C(=O)Nc1ccc(Cl)nc1)CC2 [Compound 85, N^5-(6-Chloropyridin-3-yl)-2-(3-fluorophenyl)-6,7-dihydropyrazolo[1,5-a]pyrazine-3,5(4H)-dicarboxamide] | –
0.01 to 10 | 0.01 to 10 | NC(=O)c1c(-c2cccc(Cl)c2)nn2c1CN(C(=O)Nc1cccc(F)c1)CC2 [Compound 167, 2-(3-Chlorophenyl)-N^5-(3-fluorophenyl)-6,7-dihydropyrazolo[1,5-a] pyrazine-3,5(4H)-dicarboxamide] | –
0.01 to 10 | 0.01 to 10 | NC(=O)c1c(-c2ccc(F)c(Cl)c2)nn2c1CN(C(=O)Nc1cccc(F)c1)CC2 [Compound 186, 2-(3-Chloro-4-fluorophenyl)-N^5-(3-fluorophenyl)-6,7-dihydropyrazolo[1,5-a] pyrazine-3,5(4H)-dicarboxamide] | –
0.01 to 10 | 0.01 to 10 | CC12CC3CC(C)(C1)CC(NC(=O)N1CCn4nc(-c5cccc(F)c5)c(C(N)=O)c4C1)(C3)C2 [Compound 81, N^5-(3,5-Dimethyladamantan-1-yl)-2-(3-fluorophenyl)-6,7-dihydropyrazolo[1,5-a]pyrazine-3,5(4H)-dicarboxamide] | –
0.01 to 10 | 0.01 to 10 | N#Cc1ccc(NC(=O)N2CCn3nc(-c4ccc(F)c(F)c4)c(C(N)=O)c3C2)cc1F [Compound 236, N^5-(4-Cyano-3-fluorophenyl)-2-(3,4-difluorophenyl)-6,7-dihydropyrazolo[1,5-a] pyrazine-3,5(4H)-dicarboxamide] | –
0.01 to 10 | 0.01 to 10 | COc1cc(Cl)cc(-c2nn3c(c2C(N)=O)CN(C(=O)NC(C)(C)C)CC3)c1 [Compound 152, N^5-(tert-Butyl)-2-(3-chloro-5-methoxyphenyl)-6,7-dihydropyrazolo[1,5-a]pyrazine-3,5(4H)-dicarboxamide] | –
0.01 to 10 | 0.01 to 10 | CC(C)(O)[C@H]1CN(C(=O)Nc2ccc(C#N)cc2)Cc2c(C(N)=O)c(-c3ccc(Cl)c(Cl)c3)nn21 (single isomer, unassigned) [Compound A35, N^5-(4-Cyanophenyl)-2-(3,4-dichlorophenyl)-7-(2-hydroxypropan-2-yl)-6,7-dihydropyrazolo[1,5-a]pyrazine-3,5(4H)-dicarboxamide] | –
0.01 to 10 | 0.01 to 10 | N#Cc1cccc(NC(=O)N2CCn3nc(-c4ccc(F)c(Cl)c4)c(C(N)=O)c3C2)c1 [Compound 200, 2-(3-Chloro-4-fluorophenyl)-N^5-(3-cyanophenyl)-6,7-dihydropyrazolo[1,5-a] pyrazine-3,5(4H)-dicarboxamide] | –
0.01 to 10 | 0.01 to 10 | NC(=O)c1c(-c2cccc(Cl)c2)nn2c1CN(C(=O)Nc1ccc(Cl)nc1)CC2 [Compound 171, 2-(3-Chlorophenyl)-N^5-(6-chloropyridin-3-yl)-6,7-dihydropyrazolo[1,5-a] pyrazine-3,5(4H)-dicarboxamide] | –
0.01 to 10 | 0.01 to 10 | NC(=O)c1c(-c2cccc(F)c2)nn2c1CN(C(=O)Nc1cccc(F)c1)CC2 [Compound 77, N^5,2-Bis(3-fluorophenyl)-6,7-dihydropyrazolo[1,5-a]pyrazine-3,5(4H)-dicarboxamide] | –
0.01 to 10 | 0.01 to 10 | Cc1cc(NC(=O)N2CCn3nc(-c4cccc(Cl)c4)c(C(N)=O)c3C2)ccc1C#N [Compound A38, 2-(3-Chlorophenyl)-N^5-(4-cyano-3-methylphenyl)-6,7-dihydropyrazolo[1,5-a]pyrazine-3,5(4H)-dicarboxamide] | –
